The text below walks through data of US8666718B2, “Structure of the C-terminal region of the insulin receptor α-chain and of the insulin-like growth factor receptor α-chain” (The Walter and Eliza Hall Institute of Medical Research, priority 2009, dated 2014).

Like-named read-outs stand apart in the source and are kept apart here. Bridge positions count the residues as written; N and C are the ends. Ends that are not written are not given here. Peptide text beside a SMILES is read from it.

What is called Kd is the free concentration of one partner at which half of the binding sites on the other are occupied at equilibrium, for simple one-to-one binding.

The target in test [1] is T1, IR485 (first three N-terminal domains of the human insulin receptor) (Homo sapiens, UniProt P06213, I448T/Q492K/Y171H).
T1 construct: made in house; host or cells: Lec8 mutant CHO cells
T1 sequence (P06213 with tags, fused parts or gaps Y171H/I448T/Q492K): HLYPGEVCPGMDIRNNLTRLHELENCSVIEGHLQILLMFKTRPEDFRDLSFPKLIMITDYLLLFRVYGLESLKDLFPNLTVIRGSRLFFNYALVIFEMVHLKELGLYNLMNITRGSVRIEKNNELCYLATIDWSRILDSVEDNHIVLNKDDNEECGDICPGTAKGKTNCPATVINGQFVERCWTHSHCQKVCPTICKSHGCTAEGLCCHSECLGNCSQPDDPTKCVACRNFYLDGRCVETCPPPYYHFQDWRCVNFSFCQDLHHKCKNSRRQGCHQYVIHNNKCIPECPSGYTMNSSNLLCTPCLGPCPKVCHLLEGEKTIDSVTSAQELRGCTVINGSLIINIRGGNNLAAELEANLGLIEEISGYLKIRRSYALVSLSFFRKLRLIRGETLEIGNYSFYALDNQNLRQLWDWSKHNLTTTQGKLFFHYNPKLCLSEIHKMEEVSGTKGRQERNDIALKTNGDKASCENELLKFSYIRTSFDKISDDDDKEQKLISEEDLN
Briefly: ITC titration of hormones, αCT peptides and insulin mimetic peptides against IR485. It counts as binding. As to conditions: for ΔH^0 / −TΔS^0: sample IR485 alone, mean of three ± SEM. The source says:
In order to study ligand binding to the first three domains of IR ectodomain, isothermal titration calorimetry (ITC) was used. ITC allowed a direct assay of the interactions between the IR ectodomain classical αCT peptide (residues 704-719; SEQ ID NO: 11) and IR485 (a construct consisting of the first three N-terminal domains of the IR; SEQ ID NO: 10), as well as the interaction between the analogous peptide of human IGF-1R and IR485. At the same time the thermodynamics of binding of the N- and C-terminal segments of the insulin mimetic peptide S519 (Schäffer et al., 2003) to IR485, as well as the binding of S519 itself to IR485 were examined. S519 ([…]; SEQ ID NO: 16) is a 36-residue peptide resulting from the affinity-optimization of two covalently-linked peptides, S371, a so-called “Site 1” peptide, and S446, a so-called “Site 2” peptide (Pillutla et al., 2002). […] Finally, the binding to IR485 of the IR αCT peptide carrying a F714A mutation (residues 704-719, […]; SEQ ID NO: 12) was examined.
The IR485 construct of human IR was expressed in Lec8 mutant CHO cells and purified by gel filtration chromatography as described previously (Lou et al., 2006). IR485 consists of the first 485 residues of the mature human insulin receptor followed by the 16-residue sequence […] (SEQ ID NO: 10), which comprises a serine residue followed by an enterokinase cleavage site and a c-myc epitope tag. The c-myc tag was not removed for the ITC studies described here. IR485 was concentrated to 30 mg/ml in Tris-buffered saline (TBSA; 24.8 mM Tris-HCl (pH 8.0), 137 mM NaCl, 2.7 mM KCl and 0.02% sodium azide) using an Ultrafree centrifugal concentrator (Millipore, USA). Porcine insulin (Sigma-Aldrich, USA) was prepared in a zinc-free-form (termed ZFP-insulin) by extensive dialysis against 0.1% (v/v) acetic acid followed by lyophilization. Human IGF-I was obtained from Novozymes GroPep (Australia) as “receptor grade” material.
The IR classical αCT peptide (residues 704-719, […]; SEQ ID NO: 11), the IGF-1R classical αCT peptide (residues 691-706, […]; SEQ ID NO: 14) as well as the F714A mutant of IR αCT (denoted IR αCT.714A; SEQ ID NO: 12) were obtained from Genscript Corporation (USA) at the >98% level of purity. The S519N20 peptide ([…]; SEQ ID NO: 17) and the S519C16 peptide ([…]; SEQ ID NO: 18) were obtained from AusPep (Australia) at the >90% level of purity. The S519 peptide ([…]; SEQ ID NO: 16) was obtained from Activotec (UK) at the >85% purity. Peptides were prepared by dissolving in 10 mM HCl at ˜4 mg/ml concentration and then diluting with TBSA. Oxidation of peptides S519N20 and S519 (which contain two cysteine residues) was carried out by incubating the respective peptide (prepared at 1 mg/ml in 50 mM ammonium bicarbonate adjusted to pH 8.5 with ammonia solution) in the dark at room temperature for 2 days and then lyophilizing before use. Oxidation was complete as determined by analysis with Ellman's reagent (5,5′-dithiobis-2-nitrobenzoate). All protein concentrations were determined by absorbance measurement at 280 nm using a NanoDrop 1000 spectrophotometer (Thermo Scientific, USA).
ITC experiments were performed using a VP-ITC isothermal titration calorimeter (MicroCal Inc., USA) with the calorimeter cell held at 25° C. All samples were degassed prior to injection or placement into the cell, and the instrument was temperature equilibrated prior to the start of the injections. In all experiments the volume of sample placed in the cell was 1.4 ml and the titrant was injected in 7 μl volumes over 14 s at 3 min intervals, with the total number of injections being 40. The sample contents were stirred at a speed of 310 rpm over the duration of the titration. All titrants (i.e. ZFP-insulin, IGF-I, IR αCT peptide, IGF-1R αCT peptide, IR αCT.714A peptide, S519, S519N20, and […]) were first injected into a solution of TBSA alone in order ascertain the heat of dilution, which was then subtracted from the data of interest as appropriate. […]
A general note: ITC needs no label: the signal is the heat of the interaction.

A further test addresses T2, IGF-I (Homo sapiens, UniProt P05019).
T2 construct: purchased Novozymes GroPep (Australia)
Nature of the test: ITC titration of IGF-1R αCT peptide against IGF-I. Type of test: binding. Particulars: 25° C. How it is done: (§1) The IR485 construct of human IR was expressed in Lec8 mutant CHO cells and purified by gel filtration chromatography as described previously (Lou et al., 2006). IR485 consists of the first 485 residues of the mature human insulin receptor followed by the 16-residue sequence […] (SEQ ID NO: 10), which comprises a serine residue followed by an enterokinase cleavage site and a c-myc epitope tag. The c-myc tag was not removed for the ITC studies described here. IR485 was concentrated to 30 mg/ml in Tris-buffered saline (TBSA; 24.8 mM Tris-HCl (pH 8.0), 137 mM NaCl, 2.7 mM KCl and 0.02% sodium azide) using an Ultrafree centrifugal concentrator (Millipore, USA). […]
(§2) Peptides were prepared by dissolving in 10 mM HCl at ˜4 mg/ml concentration and then diluting with TBSA. […] All protein concentrations were determined by absorbance measurement at 280 nm using a NanoDrop 1000 spectrophotometer (Thermo Scientific, USA).
(§3) ITC experiments were performed using a VP-ITC isothermal titration calorimeter (MicroCal Inc., USA) with the calorimeter cell held at 25° C. […] Data were analyzed using the instrument's software incorporated within the Origin 7 software (OriginLab, USA) and in all cases fitted as a single-site interaction using the methodologies outlined in the instrument's manual.

The target of test [2] is T3, IR485 pre-complexed with a 10-fold molar ratio of IR classical αCT peptide (Homo sapiens, UniProt P06213, I448T/Q492K/Y171H).
T3 construct: host or cells: Lec8 mutant CHO cells (IR485)
T3 sequence (P06213 with tags, fused parts or gaps Y171H/I448T/Q492K limits assumed, other chains not shown): as the sequence (P06213 with tags, fused parts or gaps Y171H/I448T/Q492K) above
Nature of the test: ITC titration against IR485 pre-complexed with a 10-fold molar ratio of IR αCT peptide. It counts as binding. As to conditions: 25° C., IR485 + 10 × IR-αCT, mean of three ± SEM. How it is done: The IR485 construct of human IR was expressed in Lec8 mutant CHO cells and purified by gel filtration chromatography as described previously (Lou et al., 2006). IR485 consists of the first 485 residues of the mature human insulin receptor followed by the 16-residue sequence […] (SEQ ID NO: 10), which comprises a serine residue followed by an enterokinase cleavage site and a c-myc epitope tag. The c-myc tag was not removed for the ITC studies described here. IR485 was concentrated to 30 mg/ml in Tris-buffered saline (TBSA; 24.8 mM Tris-HCl (pH 8.0), 137 mM NaCl, 2.7 mM KCl and 0.02% sodium azide) using an Ultrafree centrifugal concentrator (Millipore, USA). Porcine insulin (Sigma-Aldrich, USA) was prepared in a zinc-free-form (termed ZFP-insulin) by extensive dialysis against 0.1% (v/v) acetic acid followed by lyophilization.
Peptides were prepared by dissolving in 10 mM HCl at ˜4 mg/ml concentration and then diluting with TBSA. Oxidation of peptides S519N20 and S519 (which contain two cysteine residues) was carried out by incubating the respective peptide (prepared at 1 mg/ml in 50 mM ammonium bicarbonate adjusted to pH 8.5 with ammonia solution) in the dark at room temperature for 2 days and then lyophilizing before use. […] All protein concentrations were determined by absorbance measurement at 280 nm using a NanoDrop 1000 spectrophotometer (Thermo Scientific, USA).
ITC experiments were performed using a VP-ITC isothermal titration calorimeter (MicroCal Inc., USA) with the calorimeter cell held at 25° C. All samples were degassed prior to injection or placement into the cell, and the instrument was temperature equilibrated prior to the start of the injections. In all experiments the volume of sample placed in the cell was 1.4 ml and the titrant was injected in 7 μl volumes over 14 s at 3 min intervals, with the total number of injections being 40. […] Data were analyzed using the instrument's software incorporated within the Origin 7 software (OriginLab, USA) and in all cases fitted as a single-site interaction using the methodologies outlined in the instrument's manual.

The target in the next test is human IR (Homo sapiens, UniProt P06213). Particulars: Schäffer et al., 2003; cited from earlier work.
Chain of human IR (P06213 28-758 limits assumed): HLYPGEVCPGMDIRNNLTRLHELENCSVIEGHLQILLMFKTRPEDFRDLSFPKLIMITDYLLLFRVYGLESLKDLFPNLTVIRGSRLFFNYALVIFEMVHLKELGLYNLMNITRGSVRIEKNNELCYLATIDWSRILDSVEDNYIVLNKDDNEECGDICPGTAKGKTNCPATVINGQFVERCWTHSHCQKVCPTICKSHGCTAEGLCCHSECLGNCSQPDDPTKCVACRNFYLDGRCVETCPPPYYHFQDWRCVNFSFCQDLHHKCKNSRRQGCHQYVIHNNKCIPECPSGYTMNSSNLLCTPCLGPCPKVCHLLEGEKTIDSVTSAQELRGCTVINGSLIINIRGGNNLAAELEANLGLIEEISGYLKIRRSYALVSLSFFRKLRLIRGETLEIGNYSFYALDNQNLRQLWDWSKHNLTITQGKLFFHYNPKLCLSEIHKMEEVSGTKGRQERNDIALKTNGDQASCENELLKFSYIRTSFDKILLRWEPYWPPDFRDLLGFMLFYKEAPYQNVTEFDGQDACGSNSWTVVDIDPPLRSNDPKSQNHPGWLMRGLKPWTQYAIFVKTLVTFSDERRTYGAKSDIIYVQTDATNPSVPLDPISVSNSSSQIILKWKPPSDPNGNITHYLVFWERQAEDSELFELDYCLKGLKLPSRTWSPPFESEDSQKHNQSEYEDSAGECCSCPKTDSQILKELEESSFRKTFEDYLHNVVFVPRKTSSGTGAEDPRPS
Chain of human IR (P06213 763-1382 partner limits assumed): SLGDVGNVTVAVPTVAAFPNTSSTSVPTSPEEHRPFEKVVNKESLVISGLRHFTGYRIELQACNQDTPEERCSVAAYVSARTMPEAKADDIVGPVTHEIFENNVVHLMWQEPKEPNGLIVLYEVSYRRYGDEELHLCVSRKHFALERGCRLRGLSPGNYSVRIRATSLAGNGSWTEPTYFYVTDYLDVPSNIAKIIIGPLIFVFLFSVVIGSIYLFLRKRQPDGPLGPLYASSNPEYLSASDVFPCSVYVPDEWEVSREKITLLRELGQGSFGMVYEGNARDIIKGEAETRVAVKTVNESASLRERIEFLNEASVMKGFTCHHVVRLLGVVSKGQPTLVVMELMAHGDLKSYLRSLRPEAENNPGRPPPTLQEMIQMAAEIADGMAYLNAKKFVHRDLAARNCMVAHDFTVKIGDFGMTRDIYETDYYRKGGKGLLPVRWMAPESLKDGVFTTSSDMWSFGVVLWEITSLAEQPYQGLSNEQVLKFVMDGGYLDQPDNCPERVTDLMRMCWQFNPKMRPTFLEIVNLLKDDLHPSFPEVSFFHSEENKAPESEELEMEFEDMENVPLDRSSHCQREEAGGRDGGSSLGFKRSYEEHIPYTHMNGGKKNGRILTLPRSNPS
The target in a further test is T4, ZFP-insulin (Sus scrofa, UniProt P01315).
T4 construct: purchased Sigma-Aldrich
T4 sequence (P01315 25-54 limits assumed): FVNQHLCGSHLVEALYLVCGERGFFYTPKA
T4 sequence (P01315 88-108 limits assumed): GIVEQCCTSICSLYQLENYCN
Nature of the test: ITC titration of IR αCT peptide against ZFP-insulin. Type of test: binding, Porcine. Particulars: 25° C. How it is done:
as §1, §2, §3

Test [3] has as its target T5, IR485 pre-complexed with a 10-fold molar ratio of IGF-1R classical αCT peptide (Homo sapiens, UniProt P06213+P08069, I448T/Q492K/Y171H).
T5 construct: host or cells: Lec8 mutant CHO cells (IR485)
Briefly: ITC titration against IR485 pre-complexed with a 10-fold molar ratio of IGF-1R αCT peptide. It counts as binding. As to conditions: 25° C., IR485 + 10 × IGF1R-αCT, mean of three ± SEM. How it is done: as §1, §2, §3

T2 sequence (P05019 49-118 limits assumed): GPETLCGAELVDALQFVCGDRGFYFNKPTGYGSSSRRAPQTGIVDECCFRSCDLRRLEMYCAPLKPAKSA
T5 sequence (P06213 with tags, fused parts or gaps Y171H/I448T/Q492K limits assumed, other chains not shown): as the sequence (P06213 with tags, fused parts or gaps Y171H/I448T/Q492K) above

For VFENFLHNSIFVPRPE [IGF1R-αCT], the Kd is 17.6 ± 2.1 µM in test [1]; above 1 mM on IGF-I (interaction with IGF-I, read-out: Kd (estimated, weaker than)); above 1 mM on IGF-I (sample IGF-I (printed IGF-IR) 20 μM, titrant 200 μM, read-out: Kd).

`CC(C)C[C@H](NC(=O)[C@@H](N)CO)C(=O)N[C@@H](CCC(=O)O)C(=O)N[C@@H](CCC(=O)O)C(=O)N[C@@H](CCC(=O)O)C(=O)N[C@@H](Cc1c[nH]c2ccccc12)C(=O)N[C@@H](C)C(=O)N[C@@H](CCC(N)=O)C(=O)N[C@H](C(=O)N[C@@H](CCC(=O)O)C(=O)N[C@H]1CSSC[C@@H](C(=O)N2CCC[C@H]2C(=O)N[C@@H](CO)C(=O)O)NC(=O)CNC(=O)[C@H](CCCNC(=N)N)NC(=O)CNC(=O)[C@H](Cc2ccc(O)cc2)NC(=O)[C@H](C(C)C)NC(=O)[C@H](CCC(=O)O)NC1=O)C(C)C` [S519N20] (H-SLEEEWAQVECEVYGRGCPS-OH; disulfide 11-18) registered a Kd in test [1] above 1000 µM.

In test [1], TFEDYLHNVVAVPRPS [IR-αCT.714A] registered an equilibrium dissociation constant (Kd) of 6.5 ± 1.7 µM.

Consider `CC(C)C[C@H](NC(=O)[C@H](CCC(N)=O)NC(=O)[C@H](CCCNC(=N)N)NC(=O)[C@H](CCC(=O)O)NC(=O)[C@H](Cc1ccccc1)NC(=O)[C@H](Cc1c[nH]c2ccccc12)NC(=O)[C@H](CC(=O)O)NC(=O)[C@H](Cc1ccc(O)cc1)NC(=O)[C@H](Cc1ccccc1)NC(=O)[C@H](CO)NC(=O)[C@H](CCC(=O)O)NC(=O)[C@H](CC(=O)O)NC(=O)[C@H](CC(C)C)NC(=O)[C@H](CO)NC(=O)CN)C(=O)NCC(=O)O` [S519C16], for which the Kd in test [1] turned out to be 0.0026 ± 0.0007 µM. Moreover, the “ΔH^0” value in test [1] (ITC, 25° C.) was -61 ± 4 kJ/mol; in test [2], -33 ± 2 kJ/mol. The “−TΔS^0” value in test [1] (ITC, 25° C.) is 12 ± 4 kJ/mol; in test [2], -11 ± 3 kJ/mol.

Take `CC(C)C[C@H](NC(=O)[C@H](CCC(N)=O)NC(=O)[C@H](CCCNC(=N)N)NC(=O)[C@H](CCC(=O)O)NC(=O)[C@H](Cc1ccccc1)NC(=O)[C@H](Cc1c[nH]c2ccccc12)NC(=O)[C@H](CC(=O)O)NC(=O)[C@H](Cc1ccc(O)cc1)NC(=O)[C@H](Cc1ccccc1)NC(=O)[C@H](CO)NC(=O)[C@H](CCC(=O)O)NC(=O)[C@H](CC(=O)O)NC(=O)[C@H](CC(C)C)NC(=O)[C@H](CO)NC(=O)CNC(=O)[C@H](CO)NC(=O)[C@@H]1CCCN1C(=O)[C@@H]1CSSC[C@H](NC(=O)[C@H](CCC(=O)O)NC(=O)[C@@H](NC(=O)[C@H](CCC(N)=O)NC(=O)[C@H](C)NC(=O)[C@H](Cc2c[nH]c3ccccc23)NC(=O)[C@H](CCC(=O)O)NC(=O)[C@H](CCC(=O)O)NC(=O)[C@H](CCC(=O)O)NC(=O)[C@H](CC(C)C)NC(=O)[C@@H](N)CO)C(C)C)C(=O)N[C@@H](CCC(=O)O)C(=O)N[C@@H](C(C)C)C(=O)N[C@@H](Cc2ccc(O)cc2)C(=O)NCC(=O)N[C@@H](CCCNC(=N)N)C(=O)NCC(=O)N1)C(=O)NCC(=O)O` [S519] (H-SLEEEWAQVECEVYGRGCPSGSLDESFYDWFERQLG-OH; disulfide 11-18; N-terminus and C-terminus assumed): the Kd is 0.011 ± 0.003 µM in test [1] and 0.02 nM on human IR. Besides, the “ΔH^0” value in test [1] (ITC, 25° C.) was -69 ± 6 kJ/mol. In addition, the “−TΔS^0” value in test [1] (ITC, 25° C.) is listed as 24 ± 6 kJ/mol.

Turning to TFEDYLHNVVFVPRPS [IR-αCT], the Kd in test [1] is 3.9 ± 1.1 µM; at ZFP-insulin (interaction with ZFP-insulin, read-out: Kd (estimated, weaker than)), above 1 mM; at ZFP-insulin (sample ZFP-insulin 20 μM, titrant 200 μM, read-out: Kd), above 1 mM.

For the molecule “ZFP-insulin: Porcine insulin (Sigma-Aldrich) prepared in a zinc-free form by dialysis against acetic acid and lyophilization”, the Kd in test [1] (ITC, 25° C., TBSA, sample IR485, mean of three experiments ± SEM, single-site model, read-out: Kd) was above 1000 µM; in test [2], 17 ± 4 nM; in test [3], 5.7 ± 1.1 nM.
